As usually defined, the AC50 is the concentration giving half of the maximal activity seen.

This is an account of results in ChEMBL document CHEMBL1201862, “PubChem BioAssay data set” (2004).

The nature of experiment [1]: Luminescence Cell-Based Dose Confirmation HTS to Identify Activators of 5'UTR Stem-Loop Driven Alpha-Synuclein mRNA Translation in H4 Neuroglioblastoma Cells. [Related pubchem assays: 1829 (Project Summary), 1814 (Primary HTS)]. It counts as functional.
A short description of experiment [2]: Luminescence Cell-Based Dose Response HTS to Identify Activators of Luciferase Translation or Activity in H4 […] Cells. [Related pubchem assays: 1829 (Project Summary), 1814 (Primary HTS)]. Type of experiment: functional.
Another experiment concerns H4. The experiment can be described thus: Luminescence Cell-Based Dose Response HTS to Identify Activators of 5'UTR Stem-Loop Driven Prion Protein mRNA Translation in H4 Neuroglioblastoma Cells. [Related pubchem assays: 1829 (Project Summary), 1814 (Primary HTS)]. It counts as functional. The conditions noted are these: Homo sapiens.
In experiment [3] the target is T1, Corticotropin-releasing factor receptor 2/Corticotropin-releasing factor-binding protein (Homo sapiens, UniProt P24387+Q13324).
T1 sequence (Q13324 whole entry): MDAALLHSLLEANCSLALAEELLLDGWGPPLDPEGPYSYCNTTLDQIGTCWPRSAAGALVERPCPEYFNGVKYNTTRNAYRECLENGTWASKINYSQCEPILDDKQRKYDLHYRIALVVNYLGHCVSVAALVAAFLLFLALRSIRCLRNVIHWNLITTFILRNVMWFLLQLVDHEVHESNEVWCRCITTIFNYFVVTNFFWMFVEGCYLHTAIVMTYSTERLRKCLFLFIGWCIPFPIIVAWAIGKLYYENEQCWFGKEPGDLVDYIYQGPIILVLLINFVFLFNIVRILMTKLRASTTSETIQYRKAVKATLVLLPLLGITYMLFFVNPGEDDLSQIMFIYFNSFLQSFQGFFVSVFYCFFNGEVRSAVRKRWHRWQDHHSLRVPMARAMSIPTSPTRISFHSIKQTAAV
T1 sequence (P24387 whole entry): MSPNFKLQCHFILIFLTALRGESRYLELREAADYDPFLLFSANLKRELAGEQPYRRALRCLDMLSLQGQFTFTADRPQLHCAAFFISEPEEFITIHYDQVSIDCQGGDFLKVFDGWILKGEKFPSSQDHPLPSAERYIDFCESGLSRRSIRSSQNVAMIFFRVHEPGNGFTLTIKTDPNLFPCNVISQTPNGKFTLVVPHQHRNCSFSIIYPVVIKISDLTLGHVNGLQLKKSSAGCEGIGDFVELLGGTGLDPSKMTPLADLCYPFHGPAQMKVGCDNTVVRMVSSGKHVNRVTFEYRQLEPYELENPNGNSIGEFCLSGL
The experiment can be described thus: Dose Response confirmation of uHTS hits for small molecule antagonists of the CRF-binding protein and CRF-R2 receptor complex. To be noted: read-out: IC50_Mean. It counts as functional.

The target in experiment [4] is T1, Corticotropin-releasing factor receptor 2/Corticotropin-releasing factor-binding protein. The experiment can be described thus: activators of CRF receptor 2 with binding protein – uHTS hits, confirmation (AID 602473). It counts as functional. To be noted: read-out: EC50_Mean.
The nature of the next experiment: cells. Type of experiment: functional.
For experiment [5], the target named is T2, Replicative DNA helicase DnaB (Mycobacterium tuberculosis, UniProt P9WMR3).
T2 sequence (P9WMR3 whole entry): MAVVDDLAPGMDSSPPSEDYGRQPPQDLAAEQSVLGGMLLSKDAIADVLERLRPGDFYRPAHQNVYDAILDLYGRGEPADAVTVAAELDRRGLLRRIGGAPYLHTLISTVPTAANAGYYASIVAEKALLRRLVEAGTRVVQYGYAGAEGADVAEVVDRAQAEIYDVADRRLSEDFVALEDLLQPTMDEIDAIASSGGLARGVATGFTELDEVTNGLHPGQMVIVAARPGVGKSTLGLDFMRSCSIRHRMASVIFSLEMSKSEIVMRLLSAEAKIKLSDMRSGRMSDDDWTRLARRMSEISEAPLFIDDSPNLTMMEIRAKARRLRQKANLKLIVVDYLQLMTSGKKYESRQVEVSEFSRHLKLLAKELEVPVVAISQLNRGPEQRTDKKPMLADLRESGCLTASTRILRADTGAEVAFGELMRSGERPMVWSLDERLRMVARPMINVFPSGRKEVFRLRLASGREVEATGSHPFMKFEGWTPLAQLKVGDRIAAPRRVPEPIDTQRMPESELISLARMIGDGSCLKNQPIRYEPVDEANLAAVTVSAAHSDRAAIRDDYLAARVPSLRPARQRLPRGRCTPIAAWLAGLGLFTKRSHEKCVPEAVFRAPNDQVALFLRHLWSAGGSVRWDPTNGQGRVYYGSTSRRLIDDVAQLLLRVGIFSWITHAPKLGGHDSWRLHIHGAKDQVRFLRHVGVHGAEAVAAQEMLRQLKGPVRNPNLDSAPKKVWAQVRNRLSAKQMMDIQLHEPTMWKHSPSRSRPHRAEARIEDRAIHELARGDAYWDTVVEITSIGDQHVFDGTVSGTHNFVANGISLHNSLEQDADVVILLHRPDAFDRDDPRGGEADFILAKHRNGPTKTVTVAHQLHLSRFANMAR
The experiment can be described thus: DnaB intein splicing inhibitors, dose response, biochemical, cell-free fluorescence (AID 449749). It counts as functional.

The next experiment deals with T3, Protein RecA (Mycobacterium tuberculosis, UniProt P9WHJ3).
T3 sequence (P9WHJ3 whole entry): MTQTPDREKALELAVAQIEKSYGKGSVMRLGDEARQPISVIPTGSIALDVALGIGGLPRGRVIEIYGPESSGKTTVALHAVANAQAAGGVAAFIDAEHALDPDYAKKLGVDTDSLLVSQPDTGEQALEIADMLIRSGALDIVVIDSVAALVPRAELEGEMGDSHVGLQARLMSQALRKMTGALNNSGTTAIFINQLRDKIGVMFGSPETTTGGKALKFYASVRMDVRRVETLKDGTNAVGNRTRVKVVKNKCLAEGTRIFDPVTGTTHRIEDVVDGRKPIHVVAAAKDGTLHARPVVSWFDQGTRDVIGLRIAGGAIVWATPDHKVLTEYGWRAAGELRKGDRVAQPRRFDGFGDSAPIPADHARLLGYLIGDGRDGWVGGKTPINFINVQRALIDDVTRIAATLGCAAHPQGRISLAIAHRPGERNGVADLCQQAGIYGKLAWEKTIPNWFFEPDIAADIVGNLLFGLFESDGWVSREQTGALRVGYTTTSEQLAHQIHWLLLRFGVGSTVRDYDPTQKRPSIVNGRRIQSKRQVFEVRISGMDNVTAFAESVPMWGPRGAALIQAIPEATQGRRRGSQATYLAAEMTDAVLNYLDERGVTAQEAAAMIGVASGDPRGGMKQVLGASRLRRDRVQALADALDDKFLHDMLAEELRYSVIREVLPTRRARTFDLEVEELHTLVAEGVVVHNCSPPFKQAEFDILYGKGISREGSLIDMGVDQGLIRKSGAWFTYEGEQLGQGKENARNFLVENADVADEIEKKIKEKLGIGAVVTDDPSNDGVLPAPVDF
The experiment can be described thus: Fluorescence Cell-Free Homogeneous Dose Retest to Identify Inhibitors of RecA-Intein Splicing Activity. [Related pubchem assays (depositor defined):AID2097, AID2223, AID489010, AID492950]. It counts as functional.

Experiment [6] in a line: Trypanosoma cruzi growth suppression in host cells – NIH3T3 host cells, beta-gal luminescence, confirmation (AID 2044).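 Note: intracellular parasites grown in NIH/3T3 mouse fibroblasts as host cells; luminescent beta-galactosidase reporter signal from transgenic T. cruzi replicating inside host cells; inhibitors lower the luminescence signal.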 It counts as functional, cell-based.
A short description of experiment [7]: NIH3T3 cell viability loss – ATP luminescence, mouse fibroblasts, counter-screen, dose response (AID 2010).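 Note: cells exposed to compound for about 90 hours before reading.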 Type of experiment: functional, cell-based. (The purpose of a counterscreen is to sort out artefacts and off-target activity.)

SMILES strings stand for the structures. Where a name gives a salt, the structure may show the parent alone. Activity calls are given as the source filed them. Cut-off read from the data, not from the text of the source, for most assays here: actives have a measured EC50 and inactives only a lower limit.

Take `N#Cc1c(N)nc2c(c1N)CC(COc1ccccc1)O2` (configuration not stated): the EC50 is 47.2 µM (active) in experiment [1], 20.2 µM (active) in experiment [2] and 10.7 µM (active) in the experiment on H4.
Take `Cc1nc(-c2ccccc2)nc2[nH]c(=O)n(-c3ccccc3)c(=O)c12`: the EC50 in experiment [1] is 16.6 µM (active); in experiment [2], 8.63 µM (active); in the experiment on H4, > 120 µM (not active).
As to `CCOc1c(C)cc(-c2ncccc2O)cc1C`, in [3], the IC50 is > 47.1 µM (inactive). Besides, the EC50 in [4] is > 53 µM (inactive).
`CC1=CC(C)(C)N=C(Nc2ccc(C)cc2)S1`: the EC50 was 15.2 µM (active) in [1], 12.6 µM (active) in [2] and 24.4 µM (active) with H4.
With `Cc1cc(NC(=O)Cc2ccccc2)ccc1NC(=O)c1cccs1`, in [3], the IC50 is > 47.1 µM (inactive). In addition, the EC50 in experiment [4] is > 53 µM (inactive).
Take `CC(Nc1ccc(Br)cc1)C(=O)Nc1cccc(S(=O)(=O)N2CCOCC2)c1` (configuration not stated): the IC50 in experiment [3] is > 47.1 µM (inactive). In addition, the EC50 in [4] was > 53 µM (inactive).
Regarding `COc1ccc(NC(=O)CN2CCCC2c2cccs2)cc1S(=O)(=O)N1CCCCC1` (configuration not stated), the IC50 in experiment [3] is > 47.1 µM (inactive). Also, the EC50 in experiment [4] is > 53 µM (inactive).
Consider `c1ccc2c(COn3nnc4ccccc43)cccc2c1`, for which the EC50 in [1] is 28.7 µM (active); in experiment [2], > 120 µM (not active); in the experiment on H4, > 120 µM (not active).
For the compound `NC(=O)CS(=O)(=O)c1nc2ccccc2n1Cc1ccccc1F`, the IC50 in [3] is > 47.1 µM (inactive). Moreover, the EC50 in [4] is > 53 µM (inactive).
As to `Cc1nnc(N/N=C/c2cccc(OCc3ccc(Cl)c(Cl)c3)c2)n1N`, in “cells”, the IC50 was 5.42 µM (active). The AC50 in experiment [5] is 8.86 µM (active). In addition, at Protein RecA, the EC50 was 4.81 µM (active).
With `COc1ccccc1NS(=O)(=O)c1ccc(N/N=C/c2c(C)nn(-c3ccccc3)c2N2CCCC2)c([N+](=O)[O-])c1`, the EC50 in experiment [6] is 0.501 µM (active); in experiment [7], > 60 µM (not active); in [4], > 53 µM (inactive). In addition, in experiment [3], the IC50 was > 47.1 µM (inactive).
Regarding `O=C(Nc1cc(C(F)(F)F)ccc1-n1cncn1)c1ccc(Cl)cc1`, the IC50 in experiment [3] is > 47.1 µM (inactive). The EC50 in experiment [4] was > 53 µM (inactive).
Regarding `CCCc1n[nH]c2c1C(CCC)C(C#N)=C(N)O2` (configuration not stated), in [5], the AC50 was 20.5 µM (active). For the same compound, the EC50 at Protein RecA is 7.46 µM (active).
In the case of `c1ccn2c(SCc3cn4ccsc4n3)nnc2c1`, the EC50 was 0.408 µM (active) in experiment [1], 2.4 µM (active) in experiment [2] and 108 µM (active) with H4.
Turning to `O=C(CSc1ncnc2ccccc12)c1ccc2c(c1)OCCO2`, the EC50 was 12.9 µM (active) in [1], 90.6 µM (active) in experiment [2] and > 120 µM (not active) in the experiment on H4.
As to `CCCn1c(=O)c2ccccc2n2c(SCc3nc4ccccc4s3)nnc12`, the EC50 is 0.359 µM (active) in [1], 29.2 µM (active) in experiment [2] and 5.47 µM (active) in the experiment on H4.
Turning to `Cn1cccc1C(=O)OCC(=O)Nc1ccc2c(c1)CCC2`, the EC50 in experiment [1] is 6.37 µM (active); in experiment [2] it was 14.5 µM (active); in the experiment with H4 it was 47.9 µM (inconclusive).
Regarding `O=C(Oc1ccccc1C(=O)Nc1ccccc1)c1ccccc1Br`, in experiment [5], the AC50 is 7.25 µM (active). Further, the EC50 at Protein RecA was 8.13 µM (active).
With `CCN1CCN(C(=O)c2ccc3c(=O)n(CCc4ccccc4)c(=O)[nH]c3c2)CC1`, the EC50 in [1] was 107 µM (active); in [2] it was 63.3 µM (active); in the experiment on H4, 10.2 µM (active).
For the compound `Fc1cccc(CSc2nc3cc[nH]cc-3n2)c1`, the values for the EC50 (in [1]; in experiment [2]; with H4) were 39.2 µM (active), 38.2 µM (active) and 19.2 µM (active), respectively.
Regarding `COc1ccc(CNC(=O)CCc2nc3cc(S(=O)(=O)N(C)C)ccc3n2C)cc1OC`, the IC50 in [3] was > 47.1 µM (inactive). For the same compound, the EC50 in [4] is > 53 µM (inactive).
`Cc1ccc(C(=O)O/N=C(\N)Cc2ccc([N+](=O)[O-])cc2)c(Cl)c1`: the EC50 in experiment [1] was > 120 µM (not active); in [2] it was > 120 µM (not active); in the experiment with H4 it was 28.6 µM (active).
Consider `COc1ccc(Oc2nccc(-c3ccccc3)c2C#N)cc1`, for which the EC50 in experiment [2] was 9.77 µM (active); in the experiment with H4, 11.8 µM (active); in experiment [4] it was > 53 µM (inactive). For the same compound, the IC50 in experiment [3] was 30.7 µM (active).
Turning to `COc1cc(/C=N\NC(=O)c2ccccc2F)ccc1Oc1ccc([N+](=O)[O-])cn1`, in experiment [5], the AC50 was 133 µM (active). Moreover, the EC50 at Protein RecA was > 380 µM (inactive).
On to `O=C(O)C1=CCCNC1` [GUVACINE HYDROCHLORIDE], for which, in [3], the IC50 is > 47.1 µM (inactive). Besides, the EC50 in [4] is > 53 µM (inactive).
With `O=C(c1ccc(N2CCNCC2)cc1)c1cccnc1`, the IC50 in [3] was > 47.1 µM (inactive). In addition, the EC50 in [4] is > 53 µM (inactive).
On to `CCOC(=O)c1nnc(-c2ccccc2)nc1N1CC(C)OC(C)C1` (configuration not stated), for which, in experiment [3], the IC50 is > 47.1 µM (inactive). Further, in experiment [4], the EC50 was > 53 µM (inactive).
Regarding `Cc1cc(N2CCN(C)CC2)nc2ccc(NC(=O)CCC(=O)NCCCOC(C)C)cc12`, the IC50 in experiment [3] is > 47.1 µM (inactive). Moreover, the EC50 in experiment [4] is > 53 µM (inactive).
